MIC and Activity data for one compound are collected here from ChEMBL document CHEMBL3397035, “Spectral and biological evaluation of a synthetic antimicrobial peptide derived from 1-aminocyclohexane carboxylic acid” (2015).

Molecules are shown by their SMILES. In brackets after ≈: the same amount, converted by molar mass. Activity calls are given as the source filed them. No cut-off for these calls is given here. Square brackets hold non-standard residues; d marks the D form. Peptide text beside a SMILES is read from it. Ac6c = NC1(C(=O)O)CCCCC1

Test [1] deals with Staphylococcus aureus. As to the kind of experiment: Antibacterial activity against methicillin-sensitive Staphylococcus aureus UAMS-1 after 24 hrs by standard broth microdilution method. The format is functional. Particulars: UAMS-1, 24 h. Background: Broth dilution looks for growth in wells or tubes with falling amounts of substance.
Test [2] deals with Acinetobacter baumannii. As to the kind of experiment: Antibacterial activity against ampicillin, gentamicin, kanamycin, streptomycin, and tetracycline-resistant Acinetobacter baumannii WRAIR clinical isolate 13 after 24 hrs by standard broth microdilution method. The class given is functional. Particulars: WRAIR clinical isolate 13, 24 h.
The subject of test [3] is Klebsiella pneumoniae. The experiment in a line: Antibacterial activity against ampicillin, azithromycin, chloramphenicol, gentamicin, and tetracycline-resistant Klebsiella pneumoniae BAMS clinical isolate 07-18 after 24 hrs by standard broth microdilution method. Particulars: BAMS clinical isolate 07-18, 24 h. The format is functional.
The test system of test [4] is Pseudomonas aeruginosa. The experiment in a line: Antibacterial activity against Pseudomonas aeruginosa PAO1 after 24 hrs by standard broth microdilution method. The class given is functional. Particulars: PAO1, 24 h.
In test [5] the test system is Klebsiella aerogenes. The experiment in a line: Antibacterial activity against Enterobacter aerogenes after 24 hrs by standard broth microdilution method. The class given is functional.
For test [6], the system named is Enterococcus faecium. As to the kind of experiment: Antibacterial activity against Enterococcus faecium MMC4 after 24 hrs by standard broth microdilution method. The format is functional. Particulars: MMC4, 24 h.
Test [7] is described as follows: Binding affinity to 80 mM Dodecylphosphocholine micelles assessed as Lys connectivities with pH 4.4 sodium acetate buffer by TOCSY spectra.
Test [8] can be described thus: Binding affinity to sodium dodecyl sulfate micelles assessed as Lys connectivities with pH 4.4 sodium acetate buffer by TOCSY spectra.
Test [9] deals with Lipid bilayer. The experiment in a line: Binding affinity to 3.5 mM small unilamellar vesicles containing POPC with pH 6.8 sodium phosphate buffer by Far-UV-CD spectra.
The test system of test [10] is Lipid bilayer. As to the kind of experiment: Binding affinity to 3.5 mM small unilamellar vesicles containing 4:1 POPC/POPG with pH 6.8 sodium phosphate buffer by Far-UV-CD spectra.
Test [11] relates to Lipid bilayer. As to the kind of experiment: Binding affinity to 3.5 mM small unilamellar vesicles containing 60% POPE/21%POPG/19%POPC with pH 6.8 sodium phosphate buffer by Far-UV-CD spectra.
The test system of test [12] is Lipopolysaccharide (LPS). As to the kind of experiment: Binding affinity to lipopolysaccharides collected from Escherichia coli assessed as helical conformation with 40 mM sodium phosphate buffer at pH 6.8.
For test [13], the system named is Lipopolysaccharide (LPS). The experiment in a line: Binding affinity to lipopolysaccharides collected from Pseudomonas aeruginosa assessed as helical conformation with 40 mM sodium phosphate buffer at pH 6.8.
The subject of test [14] is Lipopolysaccharide (LPS). The experiment in a line: Binding affinity to lipopolysaccharides collected from Klebsiella pneumoniae assessed as helical conformation with 40 mM sodium phosphate buffer at pH 6.8.

What is called MIC is the lowest concentration that inhibits growth of the organism. Read a high MIC as a less susceptible organism. As to `CC(=O)NCC(=O)N[C@@H](Cc1ccccc1)C(=O)NC1(C(=O)NCC(=O)NC2(C(=O)N[C@@H](CCCCN)C(=O)NC3(C(=O)NCC(=O)NC4(C(=O)N[C@@H](Cc5ccccc5)C(=O)NC5(C(=O)NCC(=O)NC6(C(=O)NCC(=O)N[C@@H](CCCCN)C(=O)NC7(C(=O)N[C@@H](CCCCN)C(=O)N[C@@H](CCCCN)C(=O)N[C@@H](CCCCN)C(=O)N[C@@H](CCCCN)C(N)=O)CCCCC7)CCCCC6)CCCCC5)CCCCC4)CCCCC3)CCCCC2)CCCCC1` (Ac-GF[Ac6c]G[Ac6c]K[Ac6c]G[Ac6c]F[Ac6c]G[Ac6c]GK[Ac6c]KKKK-NH2), the MIC in test [1] worked out at 10.9 µM (≈ 24.9 µg/mL); in [2], 10.9 µM (≈ 24.9 µg/mL); in [3] it was 43 µM (≈ 98.2 µg/mL); in test [4] it was 21.9 µM (≈ 50 µg/mL); in [5], 21.9 µM (≈ 50 µg/mL); in test [6], 10.9 µM (≈ 24.9 µg/mL). Moreover, the outcome in [7], in test [8], in test [10], in [11], in [12] and in [13] was Active. For the same compound, the result in test [14] was Active. The result in test [9] was inactive.
